Measurements published in publication PMC3493622 (Organic & biomolecular chemistry, 2012).
Read-outs that look alike come from different tables or passages of the source.

Experiments:
[1] = SRB cytotoxicity / cell survival under nitrite assay conditions; format: cell-based, murine; conditions: mouse, RAW 264.7 cells
[2] = test system: HEK293; test: Cell survival in the NFκB assay; format: cell-based, Human; conditions: for NFκB assay % survival: 50 μM, cell survival in comparison with vehicle-treated controls
[3] = test system: NO production (iNOS) in LPS-stimulated RAW 264.7 cells; format: cell-based, murine; conditions: for Nitrite assay % inhibition: screening concentration 50 μM, LPS 1 μg/mL, 20 h; for nitrite inhibitory activity (in words): tested up to 50 μM
[4] = test system: NFκB (luciferase reporter in human embryonic kidney cells 293); test: NFκB luciferase assay; format: cell-based; conditions: for NFκB assay % inhibition: screening concentration 50 μM, TNFα; for NFκB inhibitory activity (in words): at 50 μM
[5] = test system: RAW 264.7 cells; test: SRB cytotoxicity / cell survival under nitrite assay conditions; format: cell-based, murine; conditions: for Nitrite assay % survival: 50 μM, cell survival in comparison with vehicle-treated controls, SRB

SMILES: Nc1ccccc1C#Cc1cc(F)cc(F)c1 [10ae′, 2-((3,5-Difluorophenyl)ethynyl)aniline]
- IC50 at 20 h [1]: 42.9 ± 5.1 µM

SMILES: c1ccc(-c2cc3ccccc3[nH]2)cc1 [Compound 1, 2-phenylindole]
- NFκB assay % survival [2]: 113.1±2.8%
- Nitrite assay % inhibition ([3]; 50 µM): 60.4±2.2%
- NFκB assay % inhibition ([4]; 6 h, 50 µM): 72.3±5%
- Nitrite assay % survival [5]: 87.3±3.9%

SMILES: C#CCn1c(-c2ccccc2)cc2ccccc21 [Compound 2d, 2-Phenyl-N-propargylindole]
- IC50 at 20 h [1]: 46.8 ± 1.9 µM

SMILES: CC(C)(C)OC(=O)n1c(-c2ccccc2)cc2ccccc21 [Compound 2f, N-Boc-2-phenylindole]
- IC50 at 20 h [1]: 38.2 ± 5 µM

SMILES: c1ccc(C2Cc3ccccc3N2)cc1 (stereo not drawn) [Compound 3, 2-phenylindoline]
- nitrite inhibitory activity (in words) [3]: essentially inactive

SMILES: CON=Cc1c(-c2ccccc2)[nH]c2ccccc12 [Compound 6a, 2-Phenyl-1H-indole-3-carboxaldehyde O-methyl oxime]
- IC50 at 20 h [1]: 48 ± 5.1 µM

SMILES: c1ccc(-c2cc3ccccc3[nH]2)cc1 [Compound 10aa, 2-phenyl-1H-indole]
- NFκB assay % survival [2]: 79.8±5.9%
- Nitrite assay % survival [5]: 66.7±4.0%

SMILES: Cc1ccccc1-c1cc2ccccc2[nH]1 [Compound 10ab, 2-o-Tolyl-1H-indole]
- IC80 ([3]; Mus musculus, RAW264.7, read-out: IC80 concentration (nitrite inhibition)): 9.3 µM
- NFκB inhibitory activity (in words) [4]: inactive
- IC50 at 20 h [1]: 32.9 ± 2.5 µM
- cell survival at the IC80 concentration ([5]; at 9.3 μM (IC80 of nitrite inhibition)): 94.5%

SMILES: Cc1ccc(-c2cc3ccccc3[nH]2)cc1 [Compound 10ac, 2-p-Tolyl-1H-indole]
- nitrite inhibitory activity (in words) [3]: essentially inactive

SMILES: COc1cc(OC)cc(-c2cc3ccccc3[nH]2)c1 [Compound 10ag, 2-(3,5-Dimethoxyphenyl)-1H-indole]
- NFκB inhibitory activity (in words) [4]: inactive

SMILES: Cc1ccccc1-c1cc2cc([N+](=O)[O-])ccc2[nH]1 [Compound 10bb, 5-Nitro-2-o-toyl-1H-indole]
- NFκB assay % survival [2]: 119.2±8.6%
- Nitrite assay % inhibition [3]: 45.9±3.0%
- NFκB assay % inhibition ([4]; 6 h): 60.6±3.2%
- Nitrite assay % survival [5]: 89.2±9.5%

SMILES: N#Cc1ccc2cc(-c3ccccc3)[nH]c2c1 [Compound 10ea, 6-Carbonitrile-2-phenyl-1H-indole]
- NFκB assay % survival [2]: 72.4±6.2%
- Nitrite assay % inhibition [3]: 45.6±2.5%
- NFκB assay % inhibition ([4]; 6 h): 50.6±3.8%
- Nitrite assay % survival [5]: 78.1±3.8%

SMILES: c1ccc(-c2nc3ccccc3[nH]2)cc1 [Compound 11, 2-phenylbenzimidazole, reference compound]
- viability at 50 µM ([2]; Homo sapiens, HEK293, read-out: NFκB assay % survival): 86.2 ± 18%
- inhibition at 50 µM ([3]; Mus musculus, RAW264.7, 20 h, read-out: Nitrite assay % inhibition): 13.8 ± 6.4%
- inhibition at 50 µM ([4]; Homo sapiens, 6 h, read-out: NFκB assay % inhibition): 73.6 ± 3.1%
- IC50 ([4]; Homo sapiens, 6 h, read-out: NFκB assay IC50): 11.2 ± 0.3 µM
- viability at 50 µM ([5]; Mus musculus, RAW264.7, 20 h, read-out: Nitrite assay % survival): 97.7 ± 5.6%
